Read-outs that look alike come from different tables or passages of the source.
What was measured:
yeast cells = settings: 1 mM nitrite, light 3 doses of 6.4 J/cm^2
Description: The effects of broad spectrum light on the expression of the nuclear COX genes for Cco and the overall level of cellular respiration were examined. Because cytochrome c oxidase is a major regulator of respiration and because the nuclear genes (COX) for cytochrome c oxidase are highly regulated by a variety of environmental factors and function to regulate the overall activity of Cco, their level of expression provides a useful measure for the long-term effects of light on Cco. Similarly, the rate of respiration per se provides a direct measure of the effects of light on the entire respiratory chain.
Yeast cells were grown in liquid media for three hours, which is equivalent to the time it takes for one cell division. […]
Light from a Broadband 50 watt Xenon/Halogen Floodlight was administered at the beginning of each hour for a total of 3 doses, each at 6.4 J/cm^2 (105 mW/cm^2). After 3 hours, cells were harvested and analyzed for measurement of gene expression (by quantitiative PCR), or respiration (by polarographic oxygen consumption). qPCR was performed with primers designed for COX of Cco subunits COX4, COX5a, COX5b, COX6, and COX8. Each sample was run in duplicate and gene expression was quantified by normalizing to PMAI, a yeast gene that is expressed at constant levels, irrespective of the environment in which cells are grown.

NT2 cells = assay: Oxidative stress induced APP processing in NT2 cells; format: cell-based; settings: for APP processing as assessed by Aβ1-42 production: FIG. 17
Description: Broadband light reverses oxidative stress induced APP processing to Aβ1-42. […] Broad band light (7.5 Joules total dose) reversed the oxidative stress affects back to control levels (FIG. 17).
Broadband light reverses oxidative stress induced APP processing to Aβ1-40. […] Broad band light (7.5 Joules total dose) reversed the oxidative stress affects back to control levels (FIG. 18).

mitochondrial Cco = target: T1, mitochondrial Cco (Mus musculus, UniProt P00397); assay: Cco/NO activity (nitrite-dependent NO synthesis) in cerebrum mitochondria, NO electrode; format: biochemical; settings: hypoxic conditions, ascorbate/TMPD as electron donor pair, cerebrum mitochondria of 7-12 day old mice
T1 construct: These experiments used mitochondria isolated from the cerebrum of 7-12 day old mice; from tissue; host or cells: mitochondria from mouse cerebrum (7-12 day old mice)
Description: We have studied Cco/NO activity in both human endothelial cells and mouse brain nervous tissue. All of the assays for Cco/NO activity were done in a closed chamber, as described elsewhere (Castello et al. 2006, Cell Metabolism 3, 277-287). Cells or mitochondria were allowed to respire and consume oxygen all of the oxygen in the chamber before the addition of nitrite, which initiated the reaction.
Results with mouse nerve cells. These experiments used mitochondria isolated from the cerebrum of 7-12 day old mice. Using the same assay we used for endothelial cell mitochondria, we assayed Cco/NO activity under hypoxic conditions with ascorbate/TMPD as an electron donor pair. […] To confirm that we had measured NO synthesis we added PTIO, an NO scavenger.

O=NO [+Nitrite, nitrite]
Oxygen Consumption (yeast cells; Hypoxia (1% O2)): 14.27 ± 0.26 nmol/min/mg cells | Oxygen Consumption (yeast cells; Normoxia): 15.21 ± 0.47 nmol/min/mg cells

CCCCCC(O)/C=C/C=O (stereo not drawn) [FINE]
APP processing as assessed by Aβ1-42 production (NT2 cells): dramatic increases | APP processing as assessed by Aβ1-40 production (NT2 cells; FIG. 18): dramatic increases

OO [H2O2]
APP processing as assessed by Aβ1-42 production (NT2 cells): dramatic increases

CC1(C)N([O])C(c2ccccc2)=[N+]([O-])C1(C)C [PTIO]
Removal of the NO produced by mitochondrial Cco (NO scavenger) (mitochondrial Cco): completely removes the NO produced

From patent publication US20160008627A1, “METHODS AND DEVICES FOR VISIBLE LIGHT MODULATION OF MITOCHONDRIAL FUNCTION IN HYPOXIA AND DISEASE” (Clarimedix Inc., priority 2008, published 2016)
